Measurements reported in the supplement of paper PMC10627819.

What was measured:
B. subtilis 168 [1] = test: Bliss interaction score (quartile over a dose matrix) (fitness difference); higher = more antagonism (negative = synergy)
In short: (§1)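 The Bliss score was calculated by subtracting the expected fitness, the product of single-drug values, from the observed fitness. OD595 at entry into stationary phase, over the plate's robust no-drug mean and capped at 1, served as the fitness readout. Single-drug values were inferred from combination data, and scores are summarised by quartiles across technical, biological and donor/recipient replicates.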

S. aureus DSM 20231 [2] = test: as above
In short: as §1

S. aureus Newman [3] = test: as above
In short: as §1

S. pneumoniae D39V [4] = test: as above
In short: as §1

S. aureus DSM 20231 [5] = test: fitness (endpoint OD595 vs no drug) (fraction); higher = more growth; conditions: main component drawn
In short: (§2)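 Fitness was defined as the optical density at the transition into stationary phase relative to the robust mean of no-drug control wells. Values were capped at 1. Cultures were started at OD595 0.01 in 384-well plates (30 µl, or 55 µl for S. pneumoniae) in TSB, LB Lennox or CY at 37 °C. OD595 was recorded every 30 min over 14 h, with the first reading subtracted as background.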

S. aureus Newman [6] = test: as above
In short: as §2

B. subtilis 168 [7] = test: as above
In short: as §2

S. pneumoniae D39V [8] = test: as above
In short: as §2
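Wherever Bliss interaction score (quartile over a dose matrix) is given: first quartile when negative (synergy) and third quartile when positive (antagonism).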

CO/N=C(\C(=O)N[C@@H]1C(=O)N2C(C(=O)[O-])=C(C[N+]3(C)CCCC3)CS[C@H]12)c1csc(N)n1 [Cefepime] + CCCCCCCCCC(=O)N[C@@H]1[C@H]([C@@H]([C@H](O[C@H]1OC2=C3C=C4C=C2OC5=C(C=C(C=C5)[C@H]([C@H]6C(=O)N[C@@H](C7=C(C(=CC(=C7)O)OC8[C@H]([C@H]([C@@H]([C@H](O8)CO)O)O)O)C9=C(C=CC(=C9)[C@H](C(=O)N6)NC(=O)[C@@H]4NC(=O)[C@@H]1C2=CC(=CC(=C2)OC2=C(C=CC(=C2)[C@H](C(=O)N[C@H](CC2=CC(=C(O3)C=C2)Cl)C(=O)N1)N)O)O)O)C(=O)O)O[C@H]1[C@@H]([C@H]([C@@H]([C@H](O1)CO)O)O)NC(=O)C)Cl)CO)O)O [Teicoplanin]
main component drawn
Conditions	Bliss interaction score
B. subtilis 168 [1]	-0.172
S. aureus DSM 20231 [2]	-0.0986
S. aureus Newman [3]	-0.0867
S. pneumoniae D39V [4]	0.0453

fitness, S. aureus DSM 20231 [5]
Conditions	first compound 0.125 µg/mL	first compound 0.25 µg/mL	first compound 0.5 µg/mL
partner 0.1562 µg/mL	0.9	0.88	0.864
partner 0.3125 µg/mL	0.959	0.929	0.919
partner 0.625 µg/mL	0.984	0.87	0.842

fitness, S. aureus Newman [6], main component drawn
Conditions	first compound 0.125 µg/mL	first compound 0.25 µg/mL	first compound 0.5 µg/mL
partner 0.1562 µg/mL	0.892	0.827	0.713
partner 0.3125 µg/mL	0.897	0.799	0.73
partner 0.625 µg/mL	0.891	0.766	0.646

fitness, S. aureus Newman [6], one replicate, main component drawn
Conditions	first compound 0.125 µg/mL	first compound 0.25 µg/mL	first compound 0.5 µg/mL
partner 0.62 µg/mL	0.712	0.61	0.625
partner 1.24 µg/mL	0.7	0.634	0.576
partner 2.48 µg/mL	0.459	0.173	0.203

CCN(CC)CCOC(=O)c1ccc(N)cc1 [Procaine] + CCCCCCCCCC(=O)N[C@@H]1[C@H]([C@@H]([C@H](O[C@H]1OC2=C3C=C4C=C2OC5=C(C=C(C=C5)[C@H]([C@H]6C(=O)N[C@@H](C7=C(C(=CC(=C7)O)OC8[C@H]([C@H]([C@@H]([C@H](O8)CO)O)O)O)C9=C(C=CC(=C9)[C@H](C(=O)N6)NC(=O)[C@@H]4NC(=O)[C@@H]1C2=CC(=CC(=C2)OC2=C(C=CC(=C2)[C@H](C(=O)N[C@H](CC2=CC(=C(O3)C=C2)Cl)C(=O)N1)N)O)O)O)C(=O)O)O[C@H]1[C@@H]([C@H]([C@@H]([C@H](O1)CO)O)O)NC(=O)C)Cl)CO)O)O [Teicoplanin]
main component drawn
Conditions	Bliss interaction score
B. subtilis 168 [1]	-0.0776
S. aureus DSM 20231 [2]	0.044
S. aureus Newman [3]	0.0323
S. pneumoniae D39V [4]	-0.113

fitness, S. aureus DSM 20231 [5]
Conditions	first compound 85.5 µg/mL	first compound 171 µg/mL	first compound 342 µg/mL
partner 0.1562 µg/mL	≥ 1	≥ 1	0.992
partner 0.3125 µg/mL	0.975	≥ 1	≥ 1
partner 0.625 µg/mL	≥ 1	≥ 1	≥ 1

fitness, S. aureus Newman [6], main component drawn
Conditions	first compound 85.5 µg/mL	first compound 171 µg/mL	first compound 342 µg/mL
partner 0.1562 µg/mL	0.996	≥ 1	0.997
partner 0.3125 µg/mL	0.975	0.981	0.963
partner 0.625 µg/mL	0.83	0.898	0.889

fitness, S. aureus Newman [6], one replicate, main component drawn
Conditions	first compound 85.5 µg/mL	first compound 171 µg/mL	first compound 342 µg/mL
partner 0.62 µg/mL	0.774	0.738	0.765
partner 1.24 µg/mL	0.785	0.705	0.726
partner 2.48 µg/mL	0.407	0.496	0.478

CCCCCCCCCC(=O)N[C@@H](Cc1c[nH]c2ccccc12)C(=O)N[C@H](CC(N)=O)C(=O)N[C@@H](CC(=O)O)C(=O)N[C@@H]1C(=O)NCC(=O)N[C@@H](CCCN)C(=O)N[C@@H](CC(=O)O)C(=O)N[C@H](C)C(=O)N[C@@H](CC(=O)O)C(=O)NCC(=O)N[C@H](CO)C(=O)N[C@@H]([C@H](C)CC(=O)O)C(=O)N[C@@H](CC(=O)c2ccccc2N)C(=O)O[C@@H]1C [Daptomycin] + CN[C@@H]1[C@H](O[C@H]2[C@H](O[C@H]3[C@H](O)[C@@H](O)[C@H](N=C(N)N)[C@@H](O)[C@@H]3N=C(N)N)O[C@@H](C)[C@]2(O)C=O)O[C@@H](CO)[C@H](O)[C@H]1O [Streptomycin]
Conditions	Bliss interaction score
B. subtilis 168 [1]	-0.0625
S. aureus DSM 20231 [2]	0.0838
S. aureus Newman [3]	0.0589
S. pneumoniae D39V [4]	0.103

fitness
Conditions	partner 1 µg/mL	partner 2 µg/mL	partner 4 µg/mL	partner 8 µg/mL
B. subtilis 168 [7], first compound 0.125 µg/mL	–	0.954	0.651	0.0465
B. subtilis 168 [7], first compound 0.25 µg/mL	–	0.977	–	0.0589
B. subtilis 168 [7], first compound 0.5 µg/mL	–	0.923	–	0.0321
S. aureus Newman [6], first compound 0.125 µg/mL	0.971	0.988	–	–
S. aureus Newman [6], first compound 0.25 µg/mL	0.964	0.985	–	–
S. aureus Newman [6], first compound 0.5 µg/mL	0.986	0.973	–	–
S. pneumoniae D39V [8], first compound 1 µg/mL	–	0.926	0.902	0.825
S. pneumoniae D39V [8], first compound 2 µg/mL	–	0.955	0.909	0.876
S. pneumoniae D39V [8], first compound 4 µg/mL	–	0.95	0.924	0.86

fitness, one replicate
Conditions	first compound 1 µg/mL	first compound 2 µg/mL	first compound 4 µg/mL
B. subtilis 168 [7], partner 2 µg/mL	0.654	–	–
B. subtilis 168 [7], partner 4 µg/mL	0.245	–	–
B. subtilis 168 [7], partner 8 µg/mL	0.0183	–	–
S. pneumoniae D39V [8], partner 16 µg/mL	0.795	0.804	0.773
